Consider 23 compounds from patent publication US9216998B2, “Tricyclic indole derivatives useful endothelial lipase inhibitors” (Janssen Pharmaceutica, NV, priority 2012, dated 2015).

Structures are written as SMILES.

In test [1] the target is human endothelial lipase (EL) (Homo sapiens (Human), UniProt Q9Y5X9). The experiment in a line: Endothelial lipase assay, cell surface lipase activity (human EL). It is filed as cell-based. Particulars: cells expressing human EL, PLA1 substrate 10 μM, fluorescence rate. The procedure: (§1) To assay for cell surface lipase activity, cells expressing human endothelial lipase (EL) or LPL were plated in CellBIND® 384-well plates (Corning, Lowell, Mass.) in 25 μL serum free medium at a density of 2000 cells/well. After 18-24 hours incubation at 37° C., the medium was removed and replaced with 15 μL assay buffer [Hank's Buffered Saline Solution with 25 mM HEPES pH 7.2] and 15 μL PLA1 substrate for a final concentration of 10 μM using a Multidrop reagent dispenser. Fluorescence signal was monitored for 30 min at 37° C. on a Safire II plate reader in kinetic mode (60 cycles, kinetic interval: 30 seconds) with an excitation wavelength of 490 nm and an emission wavelength of 515 nm. […] The amount of BODIPY-labeled product generated was calculated at the 30 min time point as determined from standard curve analysis of purified BODIPY FL C5.

The next test deals with Mouse EL (Mus musculus (Mouse), UniProt Q9WVG5). The experiment in a line: Endothelial lipase assay, cell surface lipase activity (mouse EL). It is filed as cell-based. Particulars: PLA1 substrate 10 μM, fluorescence rate. The procedure:
[The source words this procedure for another species and reports this species under the same test.] as §1

Sequence of Mouse EL (Q9WVG5 21-500): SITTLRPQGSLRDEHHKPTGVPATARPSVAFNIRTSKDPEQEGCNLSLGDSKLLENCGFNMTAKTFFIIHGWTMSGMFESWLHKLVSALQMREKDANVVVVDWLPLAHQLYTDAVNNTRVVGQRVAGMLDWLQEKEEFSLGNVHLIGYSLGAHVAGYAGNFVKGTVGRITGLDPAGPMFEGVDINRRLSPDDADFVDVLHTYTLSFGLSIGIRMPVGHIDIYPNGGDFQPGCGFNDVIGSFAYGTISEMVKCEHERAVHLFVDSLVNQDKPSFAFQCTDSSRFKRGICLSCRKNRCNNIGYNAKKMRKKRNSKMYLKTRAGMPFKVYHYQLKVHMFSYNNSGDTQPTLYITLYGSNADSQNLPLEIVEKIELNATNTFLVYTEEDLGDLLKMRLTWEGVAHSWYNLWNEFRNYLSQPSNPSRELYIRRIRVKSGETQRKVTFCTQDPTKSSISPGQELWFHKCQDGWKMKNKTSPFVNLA
Sequence of human endothelial lipase (EL) (Q9Y5X9 21-500): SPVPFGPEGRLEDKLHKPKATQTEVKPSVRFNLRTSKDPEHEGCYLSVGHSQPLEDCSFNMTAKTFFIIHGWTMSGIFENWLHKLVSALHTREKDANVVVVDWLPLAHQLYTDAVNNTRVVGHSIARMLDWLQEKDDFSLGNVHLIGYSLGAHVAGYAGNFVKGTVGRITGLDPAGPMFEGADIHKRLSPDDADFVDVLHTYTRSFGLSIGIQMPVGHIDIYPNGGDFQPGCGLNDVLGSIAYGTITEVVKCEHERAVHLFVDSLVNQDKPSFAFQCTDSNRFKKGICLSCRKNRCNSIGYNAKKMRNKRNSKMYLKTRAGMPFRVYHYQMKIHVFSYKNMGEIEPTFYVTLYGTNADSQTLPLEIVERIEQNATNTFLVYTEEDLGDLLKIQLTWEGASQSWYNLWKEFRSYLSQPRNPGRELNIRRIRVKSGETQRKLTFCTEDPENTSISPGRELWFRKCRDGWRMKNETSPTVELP

As for `FC(F)(F)c1c(CCCc2ccccc2)n2c3c(cccc13)CC2` [Compound 1], the values for the IC50 (in test [1]; on Mouse EL) were 185 nM and 195 nM, respectively.
Take `FC(F)(F)c1c(CCc2ccccc2)n2c3c(cccc13)CCC2` [Compound 2, 2-Phenethyl-1-(trifluoromethyl)-5,6-dihydro-4H-pyrrolo[3,2,1-ij]quinoline, reference compound]: the 50% inhibitory concentration (IC50) was 22 nM in test [1] and 48 nM at Mouse EL.
On to `FC(F)(F)c1c(Cc2ccccc2)n2c3c(cccc13)CCC2` [Compound 3], for which the half-inhibitory concentration (IC50) in test [1] came out at 115 nM; against Mouse EL it was 96 nM.
Taken in the same sequence, the figures for `FC(F)(F)c1c(CCCc2ccccc2)n2c3c(cccc13)CCC2` [Compound 4] were 143 nM and 205 nM.
`COc1cc2c3c(c1)c(C(F)(F)F)c(CCc1ccccc1)n3CCC2` [Compound 5]: the IC50 in test [1] stood at 14 nM; against Mouse EL, 17 nM.
As to `Oc1cc2c3c(c1)c(C(F)(F)F)c(CCc1ccccc1)n3CCC2` [Compound 6], the IC50 in test [1] came out at 71 nM; against Mouse EL, 136 nM.
On to `FC(F)(F)c1c(CCc2ccccc2)n2c3c(cccc13)CCCC2` [Compound 9, 2-phenethyl-1-(trifluoromethyl)-4,5,6,7-tetrahydroazepino[3,2,1-hi]indole], for which the IC50 in test [1] is 43 nM; against Mouse EL, 36 nM.
On to `FC(F)(F)c1c(CCCc2ccccc2)n2c3c(cccc13)CCCC2` [Compound 11], for which the results for the half-maximal inhibitory concentration (IC50) (in test [1]; against Mouse EL) were 360 nM and 1200 nM, respectively.
Regarding `CC(C)NC(=O)N1CCn2c(CCc3ccccc3)c(C(F)(F)F)c3cccc(c32)C1` [Compound 12, N-isopropyl-6-phenethyl-7-(trifluoromethyl)-3,4-dihydro-[1,4]diazepino[6,7,1-hi]indole-2(1H)-carboxamide], the IC50 in test [1] is 135 nM; against Mouse EL, 131 nM.
`CC(C)(C)OC(=O)N1CCn2c(CCc3ccccc3)c(C(F)(F)F)c3cccc(c32)C1` [Compound 13, tert-butyl 6-phenethyl-7-(trifluoromethyl)-3,4-dihydro-[1,4]diazepino[6,7,1-hi]indole-2(1H)-carboxylate]: the values for the IC50 (in test [1]; at Mouse EL) were 150 nM and 124 nM, respectively.
Taken in the same sequence, the figures for `O=C(Nc1ccccc1)N1CCn2c(CCc3ccccc3)c(C(F)(F)F)c3cccc(c32)C1` [Compound 14, 6-phenethyl-N-phenyl-7-(trifluoromethyl)-3,4-dihydro-[1,4]diazepino[6,7,1-hi]indole-2(1H)-carboxamide] were 168 nM and 162 nM.
Consider `FC(F)(F)c1c(CCc2ccccc2)n2c3c(cccc13)CNCC2` [Compound 15, 6-phenethyl-7-(trifluoromethyl)-1,2,3,4-tetrahydro-[1,4]diazepino[6,7,1-hi]indole], for which the results for the IC50 (in test [1]; at Mouse EL) were 694 nM and 677 nM, respectively.
As for `CN(C)CC(=O)N1CCn2c(CCc3ccccc3)c(C(F)(F)F)c3cccc(c32)C1` [Compound 16, 2-(dimethylamino)-1-(6-phenethyl-7-(trifluoromethyl)-3,4-dihydro-[1,4]diazepino[6,7,1-hi]indol-2(1H)-yl)ethanone], the IC50 in test [1] stood at 959 nM; at Mouse EL, 1000 nM.
In the case of `N=C(N)N1CCn2c(CCc3ccccc3)c(C(F)(F)F)c3cccc(c32)C1` [Compound 17, 6-phenethyl-7-(trifluoromethyl)-3,4-dihydro-[1,4]diazepino[6,7,1-hi]indole-2(1H)-carboximidamide], the IC50 in test [1] was found to be 4820 nM; against Mouse EL, 3620 nM.
Taken in the same sequence, the figures for `NCC(=O)N1CCn2c(CCc3ccccc3)c(C(F)(F)F)c3cccc(c32)C1` [Compound 18, 2-amino-1-(6-phenethyl-7-(trifluoromethyl)-3,4-dihydro-[1,4]diazepino[6,7,1-hi]indol-2(1H)-yl)ethanone] were 2020 nM and 1880 nM.
Taken in the same sequence, the figures for `CC(=O)OCC(=O)N1CCn2c(CCc3ccccc3)c(C(F)(F)F)c3cccc(c32)C1` [Compound 20, 2-oxo-2-(6-phenethyl-7-(trifluoromethyl)-3,4-dihydro-[1,4]diazepino[6,7,1-hi]indol-2(1H)-yl)ethyl acetate] were 442 nM and 479 nM.
In the case of `O=C(CC(F)(F)F)N1CCn2c(CCc3ccccc3)c(C(F)(F)F)c3cccc(c32)C1` [Compound 21, 3,3,3-trifluoro-1-(6-phenethyl-7-(trifluoromethyl)-3,4-dihydro-[1,4]diazepino[6,7,1-hi]indol-2(1H)-yl)propan-1-one], the figures for the IC50 (in test [1]; against Mouse EL) were 255 nM and 237 nM, respectively.
For the compound `OCCN1CCn2c(CCc3ccccc3)c(C(F)(F)F)c3cccc(c32)C1` [Compound 23, 2-(6-phenethyl-7-(trifluoromethyl)-3,4-dihydro-[1,4]diazepino[6,7,1-hi]indol-2(1H)-yl)ethanol], the results for the IC50 (in test [1]; against Mouse EL) were 280 nM and 346 nM, respectively.
Taken in the same sequence, the figures for `CS(=O)(=O)N1CCn2c(CCc3ccccc3)c(C(F)(F)F)c3cccc(c32)C1` [Compound 24, 2-(methylsulfonyl)-6-phenethyl-7-(trifluoromethyl)-1,2,3,4-tetrahydro-[1,4]diazepino[6,7,1-hi]indole] were 186 nM and 340 nM.
Consider `FC(F)(F)c1c(CCc2ccccc2)n2c3c(cccc13)OCC2` [Compound 25, 5-phenethyl-6-(trifluoromethyl)-2,3-dihydro-[1,4]oxazino[2,3,4-hi]indole], for which the figures for the IC50 (in test [1]; against Mouse EL) were 39 nM and 31 nM, respectively.
Taken in the same sequence, the figures for `FC(F)(F)c1c(CCCc2ccccc2)n2c3c(cccc13)OCC2` [Compound 26] were 413 nM and 618 nM.
Turning to `FC(F)(F)c1c(CCCOc2ccccc2)n2c3c(cccc13)OCC2` [Compound 27], the IC50 came out at 82 nM in test [1] and 108 nM on Mouse EL.
The corresponding values for `FC(F)(F)c1c(CCCc2ccccc2)n2c3c(cccc13)SCC2` [Compound 28] are 33300 nM and 33300 nM.
